Drawing on ChEMBL document CHEMBL4477240, “Electron affinity of tricyclic, bicyclic, and monocyclic compounds containing cyanoenones correlates with their potency as inducers of a cytoprotective enzyme” (Bioorg Med Chem Lett, 2016), this text covers pCD for 17 compounds.

For the test, the target named is T1, Nuclear factor erythroid 2-related factor 2 (Mus musculus) (UniProt Q60795).
T1 sequence (whole entry): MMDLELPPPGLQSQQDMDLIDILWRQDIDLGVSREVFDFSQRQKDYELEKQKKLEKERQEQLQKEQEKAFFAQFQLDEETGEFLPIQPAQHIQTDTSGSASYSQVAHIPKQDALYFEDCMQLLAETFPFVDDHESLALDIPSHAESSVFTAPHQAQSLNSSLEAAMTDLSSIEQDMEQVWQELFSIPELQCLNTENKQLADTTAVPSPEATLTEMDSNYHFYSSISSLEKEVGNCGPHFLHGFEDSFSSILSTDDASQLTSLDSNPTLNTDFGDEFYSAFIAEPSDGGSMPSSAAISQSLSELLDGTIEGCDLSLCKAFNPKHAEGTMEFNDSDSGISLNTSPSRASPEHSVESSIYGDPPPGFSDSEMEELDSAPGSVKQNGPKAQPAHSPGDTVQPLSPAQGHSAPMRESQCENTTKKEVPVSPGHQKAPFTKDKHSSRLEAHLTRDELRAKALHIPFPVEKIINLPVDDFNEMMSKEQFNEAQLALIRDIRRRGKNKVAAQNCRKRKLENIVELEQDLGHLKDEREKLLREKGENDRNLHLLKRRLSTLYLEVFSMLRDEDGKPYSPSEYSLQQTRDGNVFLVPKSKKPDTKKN
Description: Activation of Nrf2 in mouse Hepa-1c1c7 cells assessed as concentration required to double specific activity of NQO1 incubated for 48 hrs. In kind it is cell-based.
Turning to `C#CC1(C)C=CC(=O)C(C#N)=C1` (configuration not stated), the pCD amounted to 7.67. Take `C=C[C@]12C=C(C#N)C(=O)C=C1[C@@]1(C)C=C(C#N)C(=O)C(C)(C)[C@@H]1CC2`: the pCD was 7.52.

For the compound `C#C[C@]12C=C(C#N)C(=O)C=C1[C@@]1(C)C=C(C#N)C(=O)C(C)(C)[C@@H]1CC2`, the pCD is 9.04. Take `C#CC1(CC)C=CC(=O)C(C#N)=C1` (configuration not stated): the pCD came to 7.38. Then `CC#C[C@]12C=C(C#N)C(=O)C=C1[C@@]1(C)C=C(C#N)C(=O)C(C)(C)[C@@H]1CC2`, with 8.12.

On to `C#CC1(C=C)C=CC(=O)C(C#N)=C1` (configuration not stated), for which the pCD stood at 7.7. Then `CC1(C)C(=O)C(C#N)=C[C@]2(C)C3=CC(=O)C(C#N)=C[C@]3(C)CC[C@@H]12`, with 7.74.

On to `C#CC1(C#C)C=CC(=O)C(C#N)=C1`, for which the pCD was 6.74.

Turning to `CC#CC1(C)C=CC(=O)C(C#N)=C1` (configuration not stated), the pCD worked out at 7.48.

Turning to `CC1(C)C=CC(=O)C(C#N)=C1`, the pCD stood at 6.82. Then `C#CC1(C)C=C(C#N)C(=O)CC1` (configuration not stated), with 7; and `CC1(C)C=C(C#N)C(=O)C(C)(C)C1`, with 5.72.

For `C#CC12C=C(C#N)C(=O)C=C1C(C)(C)CC2` (configuration not stated), the pCD is 7.

As for `CC[C@]12C=C(C#N)C(=O)C=C1[C@@]1(C)C=C(C#N)C(=O)C(C)(C)[C@@H]1CC2`, the pCD was 7.74. Take `C#CC12C=C(C#N)C(=O)C=C1CCC2` (configuration not stated): the pCD was found to be 7.25.

As for `C=CC1(C)C=CC(=O)C(C#N)=C1` (configuration not stated), the pCD is 6.82. With `CC1(C)C(=O)C(C#N)=C[C@]2(C)C3=CC(=O)C=C[C@]3(C)CC[C@@H]12`, the pCD stood at 6.8.
